Values of other authors as cited in patent publication US20060188878A1, “Methods to predict ederma as a side effect of drug treatment” (priority 2002, published 2006).

System: CML
[1] = of 54 CML patients treated with 300 mg or more

In the case of Cc1ccc(NC(=O)c2ccc(CN3CCN(C)CC3)cc2)cc1Nc1nccc(-c2cccnc2)n1 [Imatinib], the “Patients with complete cytogenetic remission” value [1] is given as 7, the “Patients with complete hematologic responses” value [1] is given as 53 and the “Patients with cytogenic responses” value [1] is given as 29. For the same molecule, the “Patients with major cytogenetic responses (0-35% of cells in metaphase positive for the Ph′ chromosome)” value [1] was 17 and the “Patients with major cytogenetic responses, percent” value (of the 54 patients who received the dose (300 mg or more)) was 31%.
